In patent publication US7022648B2, “Plant seeds treated with N,N′-substituted ureas” (Stoller Enterprises, Inc., priority 1996, dated 2006):
Values joined by “and” are separate entries in the source; they are usually repeats but may differ in a detail not shown here. Identical values can stand only once.

Legend:
Assay type in all cases: in vivo
Corn [1] = assay: Greenhouse pot test, foliar treatment 0.01 M diformylurea; conditions: foliar treated, three leaf stage, 30 days
Experimental: (§1) Based upon the foregoing preliminary work, additional experiments to investigate the effect of diformylurea on other plant species was undertaken. These experiments were also designed to compare the effect of treating seeds as described above with foliar treatment. Wheat, corn and peanuts were selected for the next phase of this work. Diformylurea was prepared by reacting formic acid and urea at a molar ratio of 2:1 as described above. An aqueous solution containing diformylurea at a concentration of 0.01 M was prepared. For the seed treatment portion of the experiments, the seeds to be treated were soaked in the foregoing solution for about 24 hours before planting. The control seeds were again soaked in water for the same time. Both control and treated seeds were planted in 1 gallon greenhouse pots. Five seeds were planted in each pot. Each pot was thinned to two plants after germination. For the foliar treatment portion of the experiment, plants grown from untreated seeds were sprayed with a solution containing 0.01 M. diformylurea at the three leaf stage. All plants were watered and fertilized as required. Thirty days after planting, the plants were harvested and the roots and shoots examined. The mass of both the roots and shoots and the total mass of the plant in each pot were determined.

Peanuts [2] = assay: as above; conditions: foliar treated, three leaf stage, 30 days
Experimental: as §1

Wheat [3] = assay: as above; conditions: foliar treated, three leaf stage, 30 days
Experimental: as §1

Corn [4] = assay: Greenhouse pot test, seed treatment 0.01 M diformylurea; conditions: seed treated, 24 h soak, 30 days
Experimental: as §1

Peanuts [5] = assay: as above; conditions: seed treated, 24 h soak, 30 days
Experimental: as §1

Wheat [6] = assay: as above; conditions: seed treated, 24 h soak, 30 days
Experimental: as §1

Cotton = assay: Greenhouse pot test, effect of diformylurea concentration applied to seeds; conditions: seed treated, 24 h soak, 30 days; for Roots (gm), Average / Shoots (gm), Average / Total (gm), Average: average of samples
Experimental: (§2) Additional experiments were designed to study further the effect of the concentration of diformylurea applied to the seeds of several other crops. These experiments were conducted using cotton, rice, corn and soybeans. These experiments were similar to the preliminary experiments described above. The concentrate described above, containing both diformylurea and formate, was used to prepare solutions containing low, medium and high concentrations of diformylurea having, respectively, 0.001 M, 0.01 M and 0.05 M diformylurea. These solutions were used to treat the seeds of cotton, rice, corn and soybeans. Seeds of each of these crops were soaked in water or the prepared aqueous solutions of diformylurea for 24 hours before planting. Five seeds were planted in each of six, 1 gallon greenhouse pots. Pots were thinned to two plants after germination and the plants watered and fertilized as needed for 30 days. Thereafter, the plants were harvested and the mass of the roots, shoots and total mass determined.

Soybean = assay: as above; conditions: seed treated, 24 h soak, 30 days; for Roots (gm), Average / Shoots (gm), Average / Total (gm), Average: average of samples
Experimental: as §2

Rice = assay: as above; conditions: seed treated, 24 h soak, 30 days; for Roots (gm), Average / Shoots (gm), Average / Total (gm), Average: average of samples
Experimental: as §2

SMILES: O=CNC(=O)NC=O [diformylurea, N,N′-diformylurea]
- Percent Change v. Control, Roots (Corn [1]): 11%
- Percent Change v. Control, Shoots (Corn [1]): 103%
- Percent Change v. Control, Total (Corn [1]): 46%
- Root/Shoot Ratio (Corn [1]): 0.90
- Roots (gm), Average (Corn [1]; average of samples): 51.38 gm
- Shoots (gm), Average (Corn [1]; average of samples): 57.31 gm
- Total (gm), Average (Corn [1]; average of samples): 108.69 gm
- Roots (gm) (Corn [1]; single sample (pot)): 42.40 gm and 48.44 gm and 52.48 gm and 56.22 gm and 42.18 gm and 66.57 gm
- Shoots (gm) (Corn [1]; single sample (pot)): 61.80 gm and 46.17 gm and 50.59 gm and 61.12 gm and 67.57 gm and 56.61 gm
- Total (gm) (Corn [1]; single sample (pot)): 104.20 gm and 84.61 gm and 103.07 gm and 117.34 gm and 109.75 gm and 123.18 gm
- Percent Change v. Control, Roots (Peanuts [2]): 92%
- Percent Change v. Control, Shoots (Peanuts [2]): 108%
- Percent Change v. Control, Total (Peanuts [2]): 100%
- Root/Shoot Ratio (Peanuts [2]): 1.02
- Roots (gm), Average (Peanuts [2]; average of samples): 32.74 gm
- Shoots (gm), Average (Peanuts [2]; average of samples): 32.15 gm
- Total (gm), Average (Peanuts [2]; average of samples): 64.89 gm
- Roots (gm) (Peanuts [2]; single sample (pot)): 27.67 gm and 35.04 gm and 37.38 gm and 31.10 gm and 31.69 gm and 33.55 gm
- Shoots (gm) (Peanuts [2]; single sample (pot)): 28.38 gm and 30.34 gm and 33.84 gm and 32.35 gm and 36.17 gm and 31.82 gm
- Total (gm) (Peanuts [2]; single sample (pot)): 56.05 gm and 65.38 gm and 71.22 gm and 63.45 gm and 67.86 gm and 65.37 gm
- Percent Change v. Control, Roots (Wheat [3]): 14%
- Percent Change v. Control, Shoots (Wheat [3]): 108%
- Percent Change v. Control, Total (Wheat [3]): 26%
- Root/Shoot Ratio (Wheat [3]): 4.06
- Roots (gm), Average (Wheat [3]; average of samples): 23.93 gm
- Shoots (gm), Average (Wheat [3]; average of samples): 5.89 gm
- Total (gm), Average (Wheat [3]; average of samples): 29.83 gm
- Shoots (gm) (Wheat [3]; single sample (pot)): 7.48 gm and 7.53 gm and 4.44 gm and 4.62 gm and 4.00 gm and 7.28 gm
- Percent Change v. Control, Roots (Corn [4]): 30%
- Percent Change v. Control, Shoots (Corn [4]): 16%
- Percent Change v. Control, Total (Corn [4]): 24%
- Root/Shoot Ratio (Corn [4]): 1.80
- Roots (gm), Average (Corn [4]; average of samples): 58.92 gm
- Shoots (gm), Average (Corn [4]; average of samples): 32.73 gm
- Total (gm), Average (Corn [4]; average of samples): 91.65 gm
- Percent Change v. Control, Roots (Peanuts [5]): 17%
- Percent Change v. Control, Shoots (Peanuts [5]): 31%
- Percent Change v. Control, Total (Peanuts [5]): 24%
- Root/Shoot Ratio (Peanuts [5]): 0.98
- Roots (gm), Average (Peanuts [5]; average of samples): 19.93 gm
- Shoots (gm), Average (Peanuts [5]; average of samples): 20.30 gm
- Total (gm), Average (Peanuts [5]; average of samples): 40.23 gm
- Roots (gm) (Peanuts [5]; single sample (pot)): 20.11 gm and 22.04 gm and 21.60 gm and 16.74 gm and 16.46 gm and 22.65 gm
- Shoots (gm) (Peanuts [5]; single sample (pot)): 20.46 gm and 22.34 gm and 19.03 gm and 17.77 gm and 20.20 gm and 22.00 gm
- Total (gm) (Peanuts [5]; single sample (pot)): 40.57 gm and 44.38 gm and 40.63 gm and 34.51 gm and 36.66 gm and 44.65 gm
- Percent Change v. Control, Roots (Wheat [6]): 117%
- Percent Change v. Control, Shoots (Wheat [6]): 266%
- Percent Change v. Control, Total (Wheat [6]): 135%
- Root/Shoot Ratio (Wheat [6]): 4.39
- Roots (gm), Average (Wheat [6]; average of samples): 45.40 gm
- Shoots (gm), Average (Wheat [6]; average of samples): 10.35 gm
- Total (gm), Average (Wheat [6]; average of samples): 55.74 gm
- Percent Change v. Control, Roots (Cotton; 0.001 M): 159%
- Percent Change v. Control, Shoots (Cotton; 0.001 M): 18%
- Percent Change v. Control, Total (Cotton; 0.001 M): 74%
- Root/Shoot Ratio (Cotton; 0.001 M): 1.46
- Roots (gm), Average (Cotton; 0.001 M): 7.85 gm
- Shoots (gm), Average (Cotton; 0.001 M): 5.38 gm
- Total (gm), Average (Cotton; 0.001 M): 13.23 gm
- Shoots (gm) (Cotton; 0.001 M, single sample (pot)): 4.80 gm and 4.40 gm and 6.20 gm and 5.50 gm and 5.70 gm
- Total (gm) (Cotton; 0.001 M, single sample (pot)): 8.60 gm and 12.40 gm and 16.20 gm and 14.70 gm and 12.60 gm and 14.90 gm
- Percent Change v. Control, Roots (Cotton; 0.01 M): 49%
- Percent Change v. Control, Shoots (Cotton; 0.01 M): 15%
- Percent Change v. Control, Total (Cotton; 0.01 M): 28%
- Root/Shoot Ratio (Cotton; 0.01 M): 0.86
- Roots (gm), Average (Cotton; 0.01 M): 4.50 gm
- Shoots (gm), Average (Cotton; 0.01 M): 5.25 gm
- Total (gm), Average (Cotton; 0.01 M): 9.75 gm
- Shoots (gm) (Cotton; 0.01 M, single sample (pot)): 4.00 gm and 6.00 gm and 4.90 gm and 7.20 gm and 4.80 gm and 4.60 gm
- Percent Change v. Control, Roots (Cotton; 0.05 M): 67%
- Percent Change v. Control, Shoots (Cotton; 0.05 M): 29%
- Percent Change v. Control, Total (Cotton; 0.05 M): 44%
- Root/Shoot Ratio (Cotton; 0.05 M): 0.86
- Roots (gm), Average (Cotton; 0.05 M): 5.07 gm
- Shoots (gm), Average (Cotton; 0.05 M): 5.90 gm
- Total (gm), Average (Cotton; 0.05 M): 10.97 gm
- Roots (gm) (Cotton; 0.05 M, single sample (pot)): 4.30 gm and 6.00 gm and 4.20 gm and 4.60 gm and 4.70 gm and 6.60 gm
- Shoots (gm) (Cotton; 0.05 M, single sample (pot)): 4.70 gm and 5.00 gm and 6.40 gm and 5.40 gm and 6.90 gm and 7.00 gm
- Total (gm) (Cotton; 0.05 M, single sample (pot)): 9.00 gm and 11.00 gm and 10.60 gm and 10.80 gm and 11.60 gm and 13.60 gm
- Percent Change v. Control, Roots (Soybean; 0.001 M): 89%
- Percent Change v. Control, Shoots (Soybean; 0.001 M): 29%
- Percent Change v. Control, Total (Soybean; 0.001 M): 52%
- Root/Shoot Ratio (Soybean; 0.001 M): 0.93
- Roots (gm), Average (Soybean; 0.001 M): 9.18 gm
- Shoots (gm), Average (Soybean; 0.001 M): 9.87 gm
- Total (gm), Average (Soybean; 0.001 M): 19.05 gm
- Roots (gm) (Soybean; 0.001 M, single sample (pot)): 7.30 gm and 8.00 gm and 11.30 gm and 12.30 gm and 7.80 gm and 8.40 gm
- Shoots (gm) (Soybean; 0.001 M, single sample (pot)): 10.20 gm and 10.30 gm and 9.30 gm and 10.90 gm and 8.70 gm and 9.80 gm
- Total (gm) (Soybean; 0.001 M, single sample (pot)): 17.50 gm and 18.30 gm and 20.60 gm and 23.20 gm and 16.50 gm and 18.20 gm
- Percent Change v. Control, Roots (Soybean; 0.01 M): 54%
- Percent Change v. Control, Shoots (Soybean; 0.01 M): 16%
- Percent Change v. Control, Total (Soybean; 0.01 M): 31%
- Root/Shoot Ratio (Soybean; 0.01 M): 0.84
- Roots (gm), Average (Soybean; 0.01 M): 7.48 gm
- Shoots (gm), Average (Soybean; 0.01 M): 8.86 gm
- Total (gm), Average (Soybean; 0.01 M): 16.34 gm
- Shoots (gm) (Soybean; 0.01 M, single sample (pot)): 11.20 gm and 6.00 gm and 8.30 gm and 9.90 gm and 8.90 gm
- Percent Change v. Control, Roots (Rice; 0.001 M): 37%
- Percent Change v. Control, Shoots (Rice; 0.001 M): 42%
- Percent Change v. Control, Total (Rice; 0.001 M): 39%
- Root/Shoot Ratio (Rice; 0.001 M): 1.79
- Roots (gm), Average (Rice; 0.001 M): 0.61 gm
- Shoots (gm), Average (Rice; 0.001 M): 0.34 gm
- Total (gm), Average (Rice; 0.001 M): 0.95 gm
- Percent Change v. Control, Roots (Rice; 0.01 M): 13%
- Percent Change v. Control, Shoots (Rice; 0.01 M): 29%
- Percent Change v. Control, Total (Rice; 0.01 M): 19%
- Root/Shoot Ratio (Rice; 0.01 M): 1.67
- Roots (gm), Average (Rice; 0.01 M): 0.51 gm
- Shoots (gm), Average (Rice; 0.01 M): 0.31 gm
- Total (gm), Average (Rice; 0.01 M): 0.82 gm
- Percent Change v. Control, Roots (Rice; 0.05 M): 82%
- Percent Change v. Control, Shoots (Rice; 0.05 M): 63%
- Percent Change v. Control, Total (Rice; 0.05 M): 76%
- Root/Shoot Ratio (Rice; 0.05 M): 2.13
- Roots (gm), Average (Rice; 0.05 M): 0.82 gm
- Shoots (gm), Average (Rice; 0.05 M): 0.39 gm
- Total (gm), Average (Rice; 0.05 M): 1.21 gm
